Drawing on patent publication US12275731B2, “Azaindole inhibitors of wild-type and mutant forms of LRRK2” (DANA-FARBER CANCER INSTITUTE, INC., priority 2018, dated 2025), this text covers remaining binding for 3 compounds.

Common to all, as to test: KinomeScan profiling
Holding throughout (type): binding

Assay [1] addresses T1, PIK3CA(E542K) (Homo sapiens, UniProt P42336, E542K).
T1 construct: purchased KinomeScan® (panel service)
The settings on record: read-out: % control. In a few lines:
(§1)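 Single-point competition binding screen: 1 μM, DMSO, 468 kinases. Results reported as % control from RLU, normalised to DMSO and positive-control wells. Activity threshold: <35% control.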

In assay [2] the target is T2, PDPK1 (Homo sapiens, UniProt O15530).
T2 sequence (O15530 1-556): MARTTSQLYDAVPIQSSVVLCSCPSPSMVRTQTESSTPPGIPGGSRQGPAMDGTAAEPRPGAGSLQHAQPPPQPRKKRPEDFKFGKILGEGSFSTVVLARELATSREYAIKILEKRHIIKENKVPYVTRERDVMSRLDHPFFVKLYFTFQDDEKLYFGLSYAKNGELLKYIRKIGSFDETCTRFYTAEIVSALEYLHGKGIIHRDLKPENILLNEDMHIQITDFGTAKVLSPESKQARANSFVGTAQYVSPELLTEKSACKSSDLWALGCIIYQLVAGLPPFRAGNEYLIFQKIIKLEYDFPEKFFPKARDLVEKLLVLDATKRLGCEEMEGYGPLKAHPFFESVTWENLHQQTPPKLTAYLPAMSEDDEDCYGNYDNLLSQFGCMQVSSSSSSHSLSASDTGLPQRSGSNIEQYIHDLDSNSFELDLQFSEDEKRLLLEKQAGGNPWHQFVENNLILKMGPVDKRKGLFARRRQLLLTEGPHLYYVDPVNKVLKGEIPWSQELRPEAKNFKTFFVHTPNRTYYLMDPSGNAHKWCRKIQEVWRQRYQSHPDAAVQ
The settings on record: PDPK1, 1 μM; read-out: % control. In short, it runs like this: as §1

The target in assay [3] is CLK1 (Homo sapiens, UniProt P49759). The settings on record: CLK1, 1 μM; read-out: % control. In short, it runs like this: (§2)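 Compounds were screened at 1 μM in DMSO across a 468-kinase KinomeScan panel. Binding was expressed as % control, scaled between a positive control (0%) and DMSO (100%) using luminescence signal. A value under 35% counted as active.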
In assay [4] the target is EGFR (Homo sapiens, UniProt P00533). The settings on record: read-out: % control. In a few lines:
as §2

Assay [5] deals with MLK3 (Homo sapiens, UniProt Q16584). The settings on record: MLK3, 1 μM; read-out: % control. In a few lines:
as §2

Assay [6] addresses CLK4 (Homo sapiens, UniProt Q9HAZ1). The settings on record: CLK4, 1 μM; read-out: % control. In short, it runs like this:
as §2

The target in assay [7] is CLK2 (Homo sapiens, UniProt P49760). The settings on record: CLK2, 1 μM; read-out: % control. In a few lines:
as §2

Assay [8] concerns the target MEK2 (Homo sapiens, UniProt P36507). The settings on record: MEK2, 1 μM; read-out: % control. In short, it runs like this: as §2
For assay [9], the target named is FGFR1 (Homo sapiens, UniProt P11362). The settings on record: FGFR1, 1 μM; read-out: % control. In a few lines: as §2
Sequence of FGFR1 (P11362 22-822): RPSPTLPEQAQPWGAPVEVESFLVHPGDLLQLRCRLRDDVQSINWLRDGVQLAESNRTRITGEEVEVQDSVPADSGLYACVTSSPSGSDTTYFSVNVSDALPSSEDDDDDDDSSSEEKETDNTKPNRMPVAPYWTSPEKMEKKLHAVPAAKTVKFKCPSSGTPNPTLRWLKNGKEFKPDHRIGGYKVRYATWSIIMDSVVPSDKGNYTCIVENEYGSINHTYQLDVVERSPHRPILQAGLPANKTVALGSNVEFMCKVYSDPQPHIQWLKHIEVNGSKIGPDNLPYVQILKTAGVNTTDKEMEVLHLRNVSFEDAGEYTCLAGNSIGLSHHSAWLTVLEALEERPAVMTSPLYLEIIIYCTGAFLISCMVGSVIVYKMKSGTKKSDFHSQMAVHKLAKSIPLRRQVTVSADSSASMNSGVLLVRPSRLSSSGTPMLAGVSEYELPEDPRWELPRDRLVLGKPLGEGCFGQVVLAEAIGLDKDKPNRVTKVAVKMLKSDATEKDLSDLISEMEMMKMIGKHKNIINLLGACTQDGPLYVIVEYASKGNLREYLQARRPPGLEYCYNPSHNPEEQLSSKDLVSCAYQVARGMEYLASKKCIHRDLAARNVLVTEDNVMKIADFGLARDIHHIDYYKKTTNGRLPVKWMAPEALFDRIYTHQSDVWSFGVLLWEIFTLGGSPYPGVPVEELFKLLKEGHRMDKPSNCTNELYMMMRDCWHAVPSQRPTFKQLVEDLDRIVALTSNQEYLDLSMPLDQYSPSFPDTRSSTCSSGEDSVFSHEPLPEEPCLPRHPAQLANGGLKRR
Assay [10] addresses T3, MYO3B (Homo sapiens, UniProt Q8WXR4).
T3 sequence (Q8WXR4 1-1341): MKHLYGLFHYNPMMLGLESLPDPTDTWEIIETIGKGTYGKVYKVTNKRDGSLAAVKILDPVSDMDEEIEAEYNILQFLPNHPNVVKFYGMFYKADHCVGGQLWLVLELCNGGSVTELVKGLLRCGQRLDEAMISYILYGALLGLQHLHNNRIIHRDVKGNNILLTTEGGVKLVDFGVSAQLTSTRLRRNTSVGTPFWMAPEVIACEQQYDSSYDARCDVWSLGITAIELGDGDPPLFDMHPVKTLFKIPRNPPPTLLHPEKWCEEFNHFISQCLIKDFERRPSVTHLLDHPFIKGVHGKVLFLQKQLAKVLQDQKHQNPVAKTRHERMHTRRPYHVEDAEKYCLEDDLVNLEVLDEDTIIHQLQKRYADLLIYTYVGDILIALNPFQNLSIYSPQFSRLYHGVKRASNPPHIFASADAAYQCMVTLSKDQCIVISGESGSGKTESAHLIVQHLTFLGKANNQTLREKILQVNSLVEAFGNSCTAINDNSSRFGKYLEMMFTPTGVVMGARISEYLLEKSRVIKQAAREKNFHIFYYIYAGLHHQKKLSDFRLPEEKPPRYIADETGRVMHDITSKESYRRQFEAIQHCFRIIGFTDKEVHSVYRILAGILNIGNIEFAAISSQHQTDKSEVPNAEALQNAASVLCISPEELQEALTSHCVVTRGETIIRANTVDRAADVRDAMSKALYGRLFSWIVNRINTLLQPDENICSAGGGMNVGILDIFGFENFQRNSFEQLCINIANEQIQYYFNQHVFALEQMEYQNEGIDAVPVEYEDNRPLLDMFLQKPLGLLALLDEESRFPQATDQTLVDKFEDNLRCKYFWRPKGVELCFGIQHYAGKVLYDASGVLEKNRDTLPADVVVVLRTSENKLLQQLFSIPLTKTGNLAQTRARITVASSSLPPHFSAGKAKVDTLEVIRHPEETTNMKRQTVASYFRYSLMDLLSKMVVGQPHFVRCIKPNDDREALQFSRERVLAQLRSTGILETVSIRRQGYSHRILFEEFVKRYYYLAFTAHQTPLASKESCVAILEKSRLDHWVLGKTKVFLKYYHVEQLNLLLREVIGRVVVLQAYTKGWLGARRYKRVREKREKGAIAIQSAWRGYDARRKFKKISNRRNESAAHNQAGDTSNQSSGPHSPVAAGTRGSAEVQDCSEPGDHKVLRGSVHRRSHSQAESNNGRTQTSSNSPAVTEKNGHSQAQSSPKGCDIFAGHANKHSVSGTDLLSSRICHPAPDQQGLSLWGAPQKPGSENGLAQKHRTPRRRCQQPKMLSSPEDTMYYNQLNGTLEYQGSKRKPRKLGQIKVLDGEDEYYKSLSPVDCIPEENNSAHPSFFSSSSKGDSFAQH
The settings on record: read-out: % control. In a few lines:
as §2

The target in assay [11] is ZAK (Homo sapiens, UniProt Q9NYL2). The settings on record: read-out: % control. In a few lines: as §2

Sequence of CLK2 (P49760 whole entry): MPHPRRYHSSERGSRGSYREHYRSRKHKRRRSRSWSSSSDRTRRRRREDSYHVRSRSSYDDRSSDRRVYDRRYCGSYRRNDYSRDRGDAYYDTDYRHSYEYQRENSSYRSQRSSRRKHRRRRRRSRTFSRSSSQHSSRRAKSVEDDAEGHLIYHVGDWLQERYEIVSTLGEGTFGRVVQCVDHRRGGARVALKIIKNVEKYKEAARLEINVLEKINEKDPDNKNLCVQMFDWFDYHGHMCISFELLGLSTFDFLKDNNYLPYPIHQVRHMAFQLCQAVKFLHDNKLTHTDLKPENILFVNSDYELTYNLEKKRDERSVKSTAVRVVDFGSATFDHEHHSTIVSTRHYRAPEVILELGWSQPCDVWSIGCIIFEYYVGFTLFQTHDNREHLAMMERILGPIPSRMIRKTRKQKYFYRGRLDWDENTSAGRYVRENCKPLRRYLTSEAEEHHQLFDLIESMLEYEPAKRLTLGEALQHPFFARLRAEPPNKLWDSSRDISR
Sequence of EGFR (P00533 25-1210): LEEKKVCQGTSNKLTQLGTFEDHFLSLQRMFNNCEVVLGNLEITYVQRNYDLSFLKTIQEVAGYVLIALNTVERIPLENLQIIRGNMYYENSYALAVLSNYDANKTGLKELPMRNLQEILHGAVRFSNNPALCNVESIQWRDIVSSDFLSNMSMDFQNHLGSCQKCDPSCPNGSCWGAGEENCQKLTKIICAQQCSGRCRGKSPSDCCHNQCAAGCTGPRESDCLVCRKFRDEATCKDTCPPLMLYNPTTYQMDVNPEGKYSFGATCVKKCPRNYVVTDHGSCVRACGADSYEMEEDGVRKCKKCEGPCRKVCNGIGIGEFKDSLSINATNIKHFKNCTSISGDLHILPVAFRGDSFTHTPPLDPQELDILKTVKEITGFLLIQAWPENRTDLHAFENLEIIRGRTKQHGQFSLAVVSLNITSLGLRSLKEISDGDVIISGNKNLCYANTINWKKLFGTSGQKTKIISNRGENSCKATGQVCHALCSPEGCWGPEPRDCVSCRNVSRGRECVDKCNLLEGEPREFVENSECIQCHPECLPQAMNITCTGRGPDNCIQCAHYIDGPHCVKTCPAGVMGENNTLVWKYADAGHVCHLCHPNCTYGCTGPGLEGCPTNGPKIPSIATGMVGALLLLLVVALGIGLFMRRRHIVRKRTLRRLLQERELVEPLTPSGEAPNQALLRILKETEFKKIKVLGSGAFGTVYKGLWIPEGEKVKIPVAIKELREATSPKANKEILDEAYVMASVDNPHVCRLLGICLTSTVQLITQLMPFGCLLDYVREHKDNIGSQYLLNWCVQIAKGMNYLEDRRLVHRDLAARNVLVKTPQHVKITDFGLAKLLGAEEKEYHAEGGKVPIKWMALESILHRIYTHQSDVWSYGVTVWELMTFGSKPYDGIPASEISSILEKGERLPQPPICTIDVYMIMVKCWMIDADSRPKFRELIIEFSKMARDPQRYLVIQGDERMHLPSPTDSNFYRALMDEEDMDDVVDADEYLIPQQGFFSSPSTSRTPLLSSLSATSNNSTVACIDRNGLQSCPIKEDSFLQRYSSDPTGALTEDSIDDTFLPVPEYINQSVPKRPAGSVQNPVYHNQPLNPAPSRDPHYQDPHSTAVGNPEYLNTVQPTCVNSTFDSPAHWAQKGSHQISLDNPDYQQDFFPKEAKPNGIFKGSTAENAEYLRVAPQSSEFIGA
Sequence of MEK2 (P36507 whole entry): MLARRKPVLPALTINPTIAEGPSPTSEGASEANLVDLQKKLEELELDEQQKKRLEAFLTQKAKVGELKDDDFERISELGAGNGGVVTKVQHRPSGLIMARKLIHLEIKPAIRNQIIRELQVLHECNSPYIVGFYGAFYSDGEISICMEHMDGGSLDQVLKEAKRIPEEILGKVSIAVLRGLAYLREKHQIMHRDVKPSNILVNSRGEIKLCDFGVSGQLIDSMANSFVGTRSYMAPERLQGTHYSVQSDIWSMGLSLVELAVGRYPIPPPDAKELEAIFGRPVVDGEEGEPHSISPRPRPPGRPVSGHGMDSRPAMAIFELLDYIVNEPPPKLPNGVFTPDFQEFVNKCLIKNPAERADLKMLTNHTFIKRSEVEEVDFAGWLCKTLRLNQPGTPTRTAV
T1 sequence (P42336 whole entry E542K): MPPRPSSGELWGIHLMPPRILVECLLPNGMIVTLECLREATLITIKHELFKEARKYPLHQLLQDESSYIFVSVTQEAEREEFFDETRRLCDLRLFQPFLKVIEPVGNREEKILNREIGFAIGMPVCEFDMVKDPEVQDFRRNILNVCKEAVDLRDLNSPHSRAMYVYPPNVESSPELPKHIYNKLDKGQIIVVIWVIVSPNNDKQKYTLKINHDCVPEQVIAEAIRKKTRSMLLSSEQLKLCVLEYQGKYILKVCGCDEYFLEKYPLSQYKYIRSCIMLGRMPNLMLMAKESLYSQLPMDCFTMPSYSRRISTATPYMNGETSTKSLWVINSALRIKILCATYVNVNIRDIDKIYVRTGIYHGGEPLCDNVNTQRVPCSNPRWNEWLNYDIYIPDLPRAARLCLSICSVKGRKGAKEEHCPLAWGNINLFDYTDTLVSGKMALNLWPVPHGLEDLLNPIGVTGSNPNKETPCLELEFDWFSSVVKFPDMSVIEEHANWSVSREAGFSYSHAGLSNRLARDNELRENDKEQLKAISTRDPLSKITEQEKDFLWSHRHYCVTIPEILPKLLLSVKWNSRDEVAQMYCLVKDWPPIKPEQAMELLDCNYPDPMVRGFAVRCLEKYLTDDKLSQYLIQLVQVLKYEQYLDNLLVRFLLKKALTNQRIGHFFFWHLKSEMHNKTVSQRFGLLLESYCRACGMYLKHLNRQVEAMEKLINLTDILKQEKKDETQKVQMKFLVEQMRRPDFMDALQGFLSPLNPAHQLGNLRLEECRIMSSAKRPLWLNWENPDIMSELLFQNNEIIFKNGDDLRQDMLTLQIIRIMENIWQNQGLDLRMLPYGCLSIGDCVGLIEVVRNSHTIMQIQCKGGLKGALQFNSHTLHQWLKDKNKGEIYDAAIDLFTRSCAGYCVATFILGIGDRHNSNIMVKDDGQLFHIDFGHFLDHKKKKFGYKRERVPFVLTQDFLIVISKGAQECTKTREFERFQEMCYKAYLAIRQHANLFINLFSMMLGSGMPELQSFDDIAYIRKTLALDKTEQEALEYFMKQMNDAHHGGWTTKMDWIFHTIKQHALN
Sequence of MLK3 (Q16584 whole entry): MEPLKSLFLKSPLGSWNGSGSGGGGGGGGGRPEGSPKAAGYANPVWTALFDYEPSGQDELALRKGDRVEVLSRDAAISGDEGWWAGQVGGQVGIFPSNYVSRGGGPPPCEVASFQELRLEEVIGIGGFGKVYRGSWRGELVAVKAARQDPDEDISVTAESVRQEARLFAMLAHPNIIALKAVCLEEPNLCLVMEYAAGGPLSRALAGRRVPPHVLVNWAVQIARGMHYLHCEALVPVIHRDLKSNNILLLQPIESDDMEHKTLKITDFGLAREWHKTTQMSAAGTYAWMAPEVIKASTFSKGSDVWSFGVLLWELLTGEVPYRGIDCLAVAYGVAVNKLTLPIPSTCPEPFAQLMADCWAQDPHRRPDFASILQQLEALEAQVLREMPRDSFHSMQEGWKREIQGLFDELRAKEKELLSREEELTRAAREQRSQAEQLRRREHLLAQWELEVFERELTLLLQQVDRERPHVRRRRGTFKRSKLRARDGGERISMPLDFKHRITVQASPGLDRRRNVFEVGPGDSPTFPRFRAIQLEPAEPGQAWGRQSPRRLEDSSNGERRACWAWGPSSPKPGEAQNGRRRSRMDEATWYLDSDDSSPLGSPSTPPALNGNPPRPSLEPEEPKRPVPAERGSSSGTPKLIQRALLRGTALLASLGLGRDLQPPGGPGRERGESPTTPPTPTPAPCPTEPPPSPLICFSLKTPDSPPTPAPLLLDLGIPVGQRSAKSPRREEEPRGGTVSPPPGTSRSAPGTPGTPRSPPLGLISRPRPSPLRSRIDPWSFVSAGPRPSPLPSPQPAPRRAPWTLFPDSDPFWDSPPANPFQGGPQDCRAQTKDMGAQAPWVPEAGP

As for `CNc1c(-c2cnn([C@H]3CCN(C(C)=O)C[C@@H]3F)c2)cnc2[nH]cc(Cl)c12` [Compound 77, 1-((3S,4S)-4-(4-(3-chloro-4-(methylamino)-1H-pyrrolo[2,3-b]pyridin-5-yl)-1H-pyrazol-1-yl)-3-fluoropiperidin-1-yl)ethan-1-one], the remaining binding at 1 µM is 100% in [1]; 94% in assay [2]; 84% in [3]; 95% in assay [4]; 93% in assay [5]; 72% in assay [6]. The remaining binding at 1 µM in [7] was found to be 57%; in assay [8], 31%; in [9] it was 87%; in assay [10], 96%; in assay [11], 70%.
In the case of `CNc1c(-c2ccc(C(=O)N3CCC(N4CCOCC4)CC3)cc2)cnc2[nH]cc(Cl)c12` [Compound 96, (4-(3-chloro-4-(methylamino)-1H-pyrrolo[2,3-b]pyridin-5-yl)phenyl)(4-morpholinopiperidin-1-yl)methanone], the remaining binding at 1 µM in [1] was 100%; in [2], 68%; in [3] it was 33%; in [4], 100%; in [5] it was 99%; in assay [6], 11%. Also, the remaining binding at 1 µM stood at 11% in assay [7]; 19% in [8]; 85% in [9]; 73% in [10]; 75% in assay [11].
On to `O=C(c1ccc(-c2cnc3[nH]cc(Cl)c3c2NC2CCCC2)cc1)N1CCC(N2CCOCC2)CC1` [Compound 101, (4-(3-chloro-4-(cyclopentylamino)-1H-pyrrolo[2,3-b]pyridin-5-yl)phenyl)(4-morpholinopiperidin-1-yl)methanone], for which the remaining binding at 1 µM in assay [1] stood at 98%; in assay [2], 94%; in assay [3], 59%; in assay [4] it was 97%; in [5], 100%; in [6], 42%. Besides, the remaining binding at 1 µM in [7] worked out at 65%; in assay [8], 87%; in assay [9], 77%; in [10], 93%; in assay [11], 86%.
